# Reference: patent US7834024B2, “Compositions and methods for inhibition of the JAK pathway” (Rigel Pharmaceuticals, Inc., priority 2007, dated 2010)
# Structures can show the parent of a compound that is named as a salt.
# System: Ramos B-Cell Line Stimulated with IL-4 (JAK-1 and JAK-3 / Stat-6, CD23)
# Assay: Assay for Ramos B-Cell Line Stimulated with IL-4 (CD23 upregulation, FACS)
# Format: cell-based
# Settings: Homo sapiens, Ramos, human Ramos B cells, compound 1 hour, IL-4 50 units/mL for 20-24 hours, anti-CD23-PE FACS; read-out: Example 2 (IC50)
# From the text: One means of assaying for such inhibition is detection of the effect of the 2,4-pyrimidinediamine compounds on the upregulation of downstream gene products. In the Ramos/IL4 assay, B-cells are stimulated with the cytokine Interleukin-4 (IL-4) leading to the activation of the JAK/Stat pathway through phosphorylation of the JAK family kinases, JAK1 and JAK3, which in turn phosphorylate and activate the transcription factor Stat-6. […] To study the effect of inhibitors (e.g., the 2,4-substituted pyrimindinediamine compounds described herein) on the JAK1 and JAK3 kinases, human Ramos B cells are stimulated with human IL-4. 20 to 24 hours post stimulation, cells are stained for upregulation of CD23 and analyzed using flow cytometry (FACS).
# B-cells stimulated with cytokine Interleukin-4 (IL-4) activate the JAK/Stat pathway through phosphorylation of the JAK family kinases, JAK-1 and JAK-3, which in turn phosphorylate and activate the transcription factor Stat-6. […] To study the effect of inhibitors on the JAK family kinases, human Ramos B cells were stimulated with human IL-4.
# Cells were maintained at a density of 3.5×10^5. The day before the experiment, Ramos B-cells were diluted to 3.5×10^5 cells/mL to ensure that they were in a logarithmic growth phase.
# Cells were spun down and suspended in RPMI with 5% serum. 5×10^4 cells were used per point in a 96-well tissue culture plate. Cells were pre-incubated with compound or DMSO (Sigma-Aldrich, St. Louis, Mo., Cat No. D2650) vehicle control for 1 hour in a 37° C. incubator. Cells were then stimulated with IL-4 (Peprotech Inc., Rocky Hill, N.J., Cat No. 200-04) for a final concentration of 50 units/mL for 20-24 hours. […] Detection was performed using a BD LSR I System Flow Cytometer, purchased from Becton Dickinson Biosciences of San Jose, Calif.
row,Molecule,IC50 [nM]
1,"N#CCOc1cccc(Nc2nc(Nc3cccc(C(N)=O)c3)ncc2F)c1 [Compound I-45, N2-(3-Aminocarbonylphenyl)-N4-(3-cyanomethoxyphenyl)-5-fluoro-2,4-pyrimidinediamine]",426
2,"C#CCOc1ccc(Nc2nc(Nc3ccc(C(N)=O)cc3)ncc2F)cc1 [Compound I-8, N2-(4-Aminocarbonylphenyl)-5-fluoro-N4-[4-(2-propynyloxy)phenyl]-2,4-pyrimidinediamine]",118
3,"N#Cc1ccc(Nc2ncc(F)c(Nc3cccc(OCC(N)=O)c3)n2)cc1 [Compound I-34, N4-(3-Aminocarbonylmethoxyphenyl)-N2-(4-cyanophenyl)-5-fluoro-2,4-pyrimidinediamine]",1250
4,"CN1CCN(C(=O)c2ccc(Nc3ncc(F)c(Nc4cccc(OCC(N)=O)c4)n3)cc2)CC1 [Compound I-48, N4-(3-Aminocarbonylmethoxyphenyl)-5-fluoro-N2-[4-((4-methylpiperazin-1-yl)carbonyl)phenyl]-2,4-pyrimidinediamine]",913
5,"NC(=O)c1ccc(Nc2ncc(F)c(Nc3cccc(-c4ncco4)c3)n2)cc1Cl [Compound I-14, N2-(4-Aminocarbonyl-3-chlorophenyl)-5-fluoro-N4-[3-(oxazol-2-yl)phenyl]-2,4-pyrimidinediamine]",178
6,"N#CCOc1ccc(Nc2nc(Nc3ccc(C(N)=O)cc3)ncc2F)cc1 [Compound I-27, N2-(4-Aminocarbonylphenyl)-N4-(4-cyanomethoxyphenyl)-5-fluoro-2,4-pyrimidinediamine]",5.21

# Other lines, results leading:
row,IC50 [nM],Molecule
1,174,"CCc1cc(Nc2ncc(F)c(Nc3ccc4c(c3)NC(=O)CS4)n2)cc(C#N)c1Cl [II-23, N2-(4-Chloro-3-cyano-5-ethylphenyl)-5-fluoro-N4-(3-oxo-2H,4H-benzo[1,4]thiazin-6-yl)-2,4-pyrimidinediamine]"
2,694,"CNC(=O)c1cc(Nc2ncc(F)c(Nc3ccc(CC#N)cc3)n2)ccc1N1CCN(C)CC1 [Compound I-75, N4-(4-Cyanomethylphenyl)-5-fluoro-N2-[3-methylaminocarbonyl-4-(4-methylpiperazin-1-yl)phenyl]-2,4-pyrimidinediamine]"
3,265,"CNC(=O)c1cc(Nc2ncc(F)c(Nc3ccc(OCc4noc(C)n4)cc3)n2)ccc1N1CCN(C)CC1 [Compound I-63, 5-Fluoro-N2-[3-methylaminocarbonyl-4-(4-methylpiperazin-1-yl)phenyl]-N4-[4-((5-methyl-1,2,4-oxadiazol-3-yl)methoxy)phenyl]-2,4-pyrimidinediamine]"
4,82.7,"N#CCOc1ccc(Nc2nc(Nc3ccc(CC#N)cc3)ncc2F)cc1F [Compound I-103, N4-(4-Cyanomethoxy-3-fluorophenyl)-N2-(4-cyanomethylphenyl)-5-fluoro-2,4-pyrimidinediamine]"
5,144,"COc1cc(Nc2nc(Nc3ccc4oc(C(=O)NCCN5CCOCC5)cc4c3)ncc2F)ccc1Cl [III-2, N4-(4-Chloro-3-methoxyphenyl)-5-fluoro-N2-[2-(2-(N-morpholinyl)ethylaminocarbonyl)benzofuran-5-yl]-2,4-pyrimidinediamine]"
6,149,"Cc1noc(Cc2ccc(Nc3nc(Nc4ccc(CC#N)cc4)ncc3F)cc2)n1 [Compound I-113, N2-(4-Cyanomethylphenyl)-5-fluoro-N4-[4-((3-methyl-1,2,4-oxadiazol-5-yl)methyl)phenyl]-2,4-pyrimidinediamine]"
7,6710,"N#CCc1ccc(Nc2ncc(F)c(Nc3ccc(F)c(Cl)c3)n2)cc1 [Compound I-117, N4-(3-Chloro-4-fluorophenyl)-N2-(4-cyanomethylphenyl)-5-fluoro-2,4-pyrimidinediamine]"
8,258,"Cc1noc(COc2ccc(Nc3nc(Nc4ccc(CC#N)cc4)ncc3F)c(C)c2)n1 [Compound I-115, N2-(4-Cyanomethylphenyl)-5-fluoro-N4-[2-methyl-4-((3-methyl-1,2,4-oxadiazol-5-yl)methoxy)phenyl]-2,4-pyrimidinediamine]"
9,2630,"Cc1cnc(Nc2cnc3c(c2)OC(C)(C)C(=O)N3)nc1Nc1cnc2c(c1)OC(C)(C)C(=O)N2 [VII-1, N4,N2-Bis(2,2-Dimethyl-3-oxo[4H]-5-pyrido[1,4]oxazin-7-yl)-5-methyl-2,4-pyrimidinediamine]"
10,167,"Cc1cc(Nc2nc(Nc3ccc(CC#N)cc3)ncc2F)cc(C)c1OCC#N [Compound I-89, N4-(4-Cyanomethoxy-3,5-dimethylphenyl)-N2-(4-cyanomethylphenyl)-5-fluoro-2,4-pyrimidinediamine]"
11,42.2,"N#CCOc1cccc(Nc2nc(Nc3ccc(CC#N)cc3)ncc2F)c1 [Compound I-66, N4-(3-Cyanomethoxyphenyl)-N2-(4-cyanomethylphenyl)-5-fluoro-2,4-pyrimidinediamine]"

# Same assay, conditions: human Ramos B cells, compound 1 hour, IL-4 50 units/mL for 20-24 hours, anti-CD23-PE FACS; read-out: Example 2 (IC50)
row,Molecule,IC50 [nM]
1,"Cc1nc(COc2ccc(Nc3nc(Nc4ccc(C(=O)N5CCN(C)CC5)cc4)ncc3F)cc2)no1 [Compound I-61, 5-Fluoro-N4-[4-((5-methyl-1,2,4-oxadiazol-3-yl)methoxy)phenyl]-N2-[4-((4-methylpiperazin-1-yl)carbonyl)phenyl]-2,4-pyrimidinediamine]",898
2,"CNC(=O)COc1cccc(Nc2ncc(F)c(Nc3ccc4c(c3)N(Cc3ccc(OC)cc3)C(=O)C(C)S4)n2)c1 (racemic) [II-13, Racemic-5-fluoro-N2-[3-(N-methylaminocarbonylmethyleneoxy)phenyl]-N4-[2-methyl-3-oxo-4-(4-methoxybenzyl)-2H-benzo[1,4]thiazin-6-yl]-2,4-pyrimidinediamine]",938
3,"Cc1cc(COc2ccc(Nc3nc(Nc4ccc(CC#N)cc4)ncc3F)cc2)no1 [Compound I-130, N2-(4-Cyanomethylphenyl)-5-fluoro-N4-[4-((5-methylisoxazol-3-yl)methyleneoxy)phenyl]-2,4-pyrimidinediamine]",344
4,"Cc1noc(COc2cccc(Nc3nc(Nc4cccc(C(N)=O)c4)ncc3F)c2)n1 [Compound I-128, N2-(3-Aminocarbonylphenyl)-5-fluoro-N4-[3-((3-methyl-1,2,4-oxadiazol-5-yl)methyleneoxy)phenyl]-2,4-pyrimidinediamine]",206
5,"CCN(CC)CCNC(=O)c1ccc(Nc2ncc(F)c(Nc3ccc(OCc4cc(C)on4)cc3)n2)cc1 [Compound I-127, N2-[4-(2-(N,N-Diethylamino)ethylaminocarbonyl)phenyl]-5-fluoro-N4-[4-((5-methylisoxazol-3-yl)methyleneoxy)phenyl]-2,4-pyrimidinediamine]",9.33
6,"Cc1nc(COc2ccc(Nc3nc(Nc4ccc(C(=O)N5CCN(C)CC5)cc4)ncc3F)cc2)no1 [Compound I-60, 5-Fluoro-N4-[4-((5-methyl-1,2,4-oxadiazol-3-yl)methoxy)phenyl]-N2-[4-((4-methylpiperazin-1-yl)carbonyl)phenyl]-2,4-pyrimidinediamine]",421
7,"Cc1noc(COc2ccc(Nc3nc(Nc4ccc(C(N)=O)cc4)ncc3F)cc2)n1 [Compound I-10, N2-(4-Aminocarbonylphenyl)-5-fluoro-N4-[4-((3-methyl-1,2,4-oxadiazol-5-yl)methyleneoxy)phenyl]-2,4-pyrimidinediamine Hydrogen Chloride Salt]",4.85
8,"N4-(4-Chloro-3-methoxyphenyl)-N2-[1-(2-(N-morpholinyl)ethylaminocarbonyl)-1H-indol-6-yl]-2,4-pyrimidinediamine [VI-4]",889
